Results as given in article PMC12627007, “HIV nucleocapsid proteins as targets for novel 1,2-benzisothiazol-3(2H)-one benzenesulfonamides: synthesis and antiretroviral activity” (Frontiers in Microbiology, 2025).
Like-named read-outs stand apart in the source and are kept apart here.

What was measured:
Assay type in all cases: cell-based
HIV-1 IIIB strain = assay: microbe, parasite or virus in culture; conditions: for EC50: Human immunodeficiency virus 1, IIIB; for Selectivity Index (SI = CC50/EC50) HIV-1: IIIB strain, in round brackets
Experimental: (§1) HIV-1IIIB and HIV-2 CBL-20 strains were obtained from the supernatants of persistently infected H9/IIIB and CEM cells, respectively. HIV-1 and HIV-2 stock solutions had titres of 4.5 × 10^7 and 1.4 × 10^6 50% cell culture infectious doses (CCID50)/ml, respectively. […] The K103R + V179D + P225H mutant (EFVR) was derived from an IIIB strain passaged in MT-4 cells in the presence of Efavirenz (up to 2 μM). N119, A17 and EFV^R stock solutions had titres of 1.2 × 10^8, 2.1 × 10^7, and 4.0 × 10^7 CCID50/ml, respectively.
(§2) The activity of the test compounds against the replication of HIV-1 wt and mutant strains (N119, A17, EFV^R, AZT^R, MDR, SAQ^R) and HIV-2 wt in acutely infected cells was based on the inhibition of virus-induced cytopathogenicity in MT-4 and C8166 cells, respectively. Briefly, 50 μL of culture medium containing 1 × 10^4 cells was added to each well of flat-bottom microtitre trays containing 50 μL of culture medium with or without different serial concentrations of test compounds. Then, 20 μL of an HIV suspension (containing the appropriate amount of CCID50 required to cause complete cytopathogenicity on day 4, final multiplicity of infection [m.o.i.] 0.01) was added.

cell-free HIV-1 = assay: Virucidal activity against cell-free HIV-1 (Reed-Muench titration); conditions: 0 °C; compound 6 80 μM, AMPH-B 100 μM
Experimental: (§3) Cell-free, high-titre HIV-1 and HIV-2 stock solutions were exposed to the test compounds for 2 h at 0 °C or 37 °C. At the end of incubation, residual infectivity was determined using the Reed–Muench end-point titration method, as described below.
(§4) Titration was performed in C8166 cells using the standard limiting dilution method (dilution 1:2, four replica wells/dilution) in 96-well plates.

HIV-2 CBL-20 strain = assay: Inhibition of HIV-2-induced cytopathogenicity in C8166 cells (MTT)
Experimental: as §1, §2

cell-free HIV-2 = assay: Virucidal activity against cell-free HIV-2 (Reed-Muench titration); conditions: 0 °C; compound 6 80 μM, AMPH-B 100 μM
Experimental: as §3, §4

[1] = tested on: HIV-1 SAQR (L10F, G48V, L90M); assay: Inhibition of virus-induced cytopathogenicity in MT-4 cells, PRI-resistant mutant SAQR; conditions: for EC50: Human immunodeficiency virus 1, MT4, read-out: EC50 SAQR; for Selectivity Index (SI = CC50/EC50) SAQR: in round brackets
Experimental: as §1, §2

HIV-1 N119 (Y181C) = assay: Inhibition of virus-induced cytopathogenicity in MT-4 cells, NNRTI-resistant mutant N119; conditions: for EC50: Human immunodeficiency virus 1, MT4, read-out: EC50 N119; for Selectivity Index (SI = CC50/EC50) N119: in round brackets
Experimental: as §1, §2

[2] = tested on: HIV-1 AZTR (67N, 70R, 215F, 219Q); assay: Inhibition of virus-induced cytopathogenicity in MT-4 cells, NRTI-resistant mutant AZTR; conditions: for EC50: Human immunodeficiency virus 1, MT4, read-out: EC50 AZTR; for Selectivity Index (SI = CC50/EC50) AZTR: in round brackets
Experimental: as §1, §2

[3] = Cytotoxicity in mock-infected MT-4 cells (MTT method); conditions: human
Experimental: as §2, with “added. After incubation at 37 °C, cell viability was determined using the […] (MTT) method ([Pauwels et al., 1988]). The cytotoxicity of the test compounds was evaluated in parallel with their antiviral activity through the viability of mock-infected, treated cells, as monitored by the MTT method and described elsewhere ([Morellet et al., 1994]).” for “added.”

[4] = tested on: HIV-1 A17 (K103N + Y181C); assay: Inhibition of virus-induced cytopathogenicity in MT-4 cells, NNRTI-resistant mutant A17; conditions: for EC50: Human immunodeficiency virus 1, MT4, read-out: EC50 A17; for Selectivity Index (SI = CC50/EC50) A17: in round brackets
Experimental: as §1, §2

[5] = tested on: HIV-1 MDR (74V, 41L, 106A, 215Y); assay: Inhibition of virus-induced cytopathogenicity in MT-4 cells, NRTI-resistant mutant MDR; conditions: for EC50: Human immunodeficiency virus 1, MT4, read-out: EC50 MDR; for Selectivity Index (SI = CC50/EC50) MDR: in round brackets
Experimental: as §1, §2

[6] = tested on: HIV-1 EFVR (K103R + V179D + P225H); assay: Inhibition of virus-induced cytopathogenicity in MT-4 cells, NNRTI-resistant mutant EFVR; conditions: for EC50: Human immunodeficiency virus 1, MT4, read-out: EC50 EFVR; for Selectivity Index (SI = CC50/EC50) EFVR: in round brackets
Experimental: as §1, §2

## C[C@@H]1[C@H](O)[C@@H](C)/C=C/C=C/C=C/C=C/C=C/C=C/C=C/[C@H](O[C@@H]2O[C@H](C)[C@@H](O)[C@H](N)[C@@H]2O)C[C@@H]2O[C@](O)(C[C@@H](O)C[C@@H](O)[C@H](O)CC[C@@H](O)C[C@@H](O)CC(=O)O[C@H]1C)C[C@H](O)[C@H]2C(=O)O [AMPH-B, Amphotericin B, reference compound]
HIV-1 IIIB strain; MT4, read-out: EC50 HIV-1 (Table 2)
  EC50: 6 ± 3 µM
cell-free HIV-1
  Effect on HIV-1 infectivity, incubation at 0 °C: still able to reduce it by a high percentage
HIV-2 CBL-20 strain; Human immunodeficiency virus 2, C8166, read-out: EC50 HIV-2 (Table 2)
  EC50: 2 ± 0.3 µM
cell-free HIV-2
  Effect on HIV-2 infectivity, incubation at 0 °C: more than 1 log10

## Cc1cn([C@H]2C[C@H](N=[N+]=[N-])[C@@H](CO)O2)c(=O)[nH]c1=O [AZT, azidothymidine, reference compound]
HIV-1 IIIB strain; MT4, read-out: EC50 HIV-1
  EC50: 0.01 ± 0.003 µM
[1]
  EC50: 0.01 ± 0.005 µM
HIV-1 N119 (Y181C)
  EC50: 0.02 ± 0.001 µM
HIV-2 CBL-20 strain; Human immunodeficiency virus 2, C8166, read-out: EC50 HIV-2
  EC50: 0.008 ± 0.001 µM
[2]
  EC50: 0.2 ± 0.05 µM
[3]; MT-4, MTT method
  CC50: ≥ 20 µM
[4]
  EC50: 0.01 ± 0.003 µM
[5]
  EC50: 0.2 ± 0.07 µM
[6]
  EC50: 0.01 ± 0.002 µM

## O=c1c2cc(Cl)ccc2sn1NS(=O)(=O)c1ccccc1Cl [Compound 18, 2-Chloro-N-(5-chloro-3-oxo-1,2-benzisothiazol-2(3H)-yl)benzenesulfonamide]
HIV-1 IIIB strain; MT4, read-out: EC50 HIV-1
  EC50: 16 ± 3 µM
HIV-1 IIIB strain
  Selectivity Index (SI = CC50/EC50) HIV-1: > 6
[1]
  EC50: 15 ± 3 µM
  Selectivity Index (SI = CC50/EC50) SAQR: > 6
HIV-1 N119 (Y181C)
  EC50: 14 ± 1 µM
  Selectivity Index (SI = CC50/EC50) N119: > 5
[2]
  EC50: 12 ± 2 µM
  Selectivity Index (SI = CC50/EC50) AZTR: > 8
[3]
  CC50 at 4 days: > 100 µM
[4]
  EC50: 20 ± 4 µM
  Selectivity Index (SI = CC50/EC50) A17: > 5
[5]
  EC50: 16 ± 2 µM
  Selectivity Index (SI = CC50/EC50) MDR: > 6
[6]
  EC50: 7 ± 2 µM
  Selectivity Index (SI = CC50/EC50) EFVR: > 14

## O=c1c2ccccc2sn1N(S(=O)(=O)c1ccccc1)S(=O)(=O)c1ccccc1 [Compound 20, N-(3-oxo-1,2-benzisothiazol-2(3H)-yl)-N-(phenylsulfonyl)benzenesulfonamide]
HIV-1 IIIB strain; MT4, read-out: EC50 HIV-1
  EC50: 22 ± 3.5 µM
[1]
  EC50: 25 ± 3 µM
  Selectivity Index (SI = CC50/EC50) SAQR: > 4
HIV-1 N119 (Y181C)
  EC50: 23 ± 1 µM
[2]
  EC50: 20 ± 2 µM
  Selectivity Index (SI = CC50/EC50) AZTR: > 5
[3]
  CC50 at 4 days: > 100 µM
[4]
  EC50: 25 ± 2 µM
  Selectivity Index (SI = CC50/EC50) A17: > 4
[5]
  EC50: 19 ± 1 µM
  Selectivity Index (SI = CC50/EC50) MDR: > 5
[6]
  EC50: 22 ± 1 µM
  Selectivity Index (SI = CC50/EC50) EFVR: > 4

## Cc1ccc(S(=O)(=O)N(n2sc3ccccc3c2=O)S(=O)(=O)c2ccc(C)cc2)cc1 [Compound 21, 4-Methyl-N-[(4-methylphenyl)sulfonyl]-N-(3-oxo-1,2-benzisothiazol-2(3H)-yl)benzenesulfonamide]
HIV-1 IIIB strain; MT4, read-out: EC50 HIV-1
  EC50: 76 µM
[1]
  EC50: 63 µM
HIV-1 N119 (Y181C)
  EC50: 44 µM
[2]
  EC50: 70 µM
[3]
  CC50 at 4 days: > 100 µM
[4]
  EC50: 58 µM
[5]
  EC50: 63 µM
[6]
  EC50: 70 µM

## O=c1c2ccccc2sn1N(S(=O)(=O)c1ccc([N+](=O)[O-])cc1)S(=O)(=O)c1ccc([N+](=O)[O-])cc1 [Compound 22, 4-Nitro-N-[(4-nitrophenyl)sulfonyl]-N-(3-oxo-1,2-benzisothiazol-2(3H)-yl)benzenesulfonamide]
HIV-1 IIIB strain; MT4, read-out: EC50 HIV-1
  EC50: 21 µM
HIV-1 IIIB strain
  Selectivity Index (SI = CC50/EC50) HIV-1: > 4
[1]
  EC50: 23 µM
  Selectivity Index (SI = CC50/EC50) SAQR: > 4
HIV-1 N119 (Y181C)
  EC50: 20 µM
  Selectivity Index (SI = CC50/EC50) N119: > 5
[2]
  EC50: 24 µM
  Selectivity Index (SI = CC50/EC50) AZTR: > 4
[3]; MT-4, MTT method
  CC50 at 4 days: > 100 µM
[4]
  EC50: 20 µM
  Selectivity Index (SI = CC50/EC50) A17: > 5
[5]
  EC50: 25 µM
  Selectivity Index (SI = CC50/EC50) MDR: > 4
[6]
  EC50: 21 µM
  Selectivity Index (SI = CC50/EC50) EFVR: > 4

## O=c1c2ccccc2sn1N(S(=O)(=O)c1ccc(F)cc1)S(=O)(=O)c1ccc(F)cc1 [Compound 23, 4-Fluoro-N-[(4-fluorolphenyl)sulfonyl]-N-(3-oxo-1,2-benzisothiazol-2(3H)-yl)benzenesulfonamide]
HIV-1 IIIB strain; MT4, read-out: EC50 HIV-1
  EC50: 26 ± 2 µM
[1]
  EC50: 22 µM
HIV-1 N119 (Y181C)
  EC50: 23 ± 1 µM
[2]
  EC50: 22 µM
[3]
  CC50 at 4 days: 36 ± 2.5 µM
[4]
  EC50: 24 µM
[5]
  EC50: 25 µM
[6]
  EC50: 25 µM

## O=c1c2ccccc2sn1N(S(=O)(=O)c1ccc(Cl)cc1)S(=O)(=O)c1ccc(Cl)cc1 [Compound 24, 4-Chloro-N-[(4-chlorophenyl)sulfonyl]-N-(3-oxo-1,2-benzisothiazol-2(3H)-yl)benzenesulfonamide]
HIV-1 IIIB strain; MT4, read-out: EC50 HIV-1
  EC50: 71 ± 6 µM
[1]
  EC50: 63 µM
HIV-1 N119 (Y181C)
  EC50: 29 ± 1 µM
[2]
  EC50: 71 µM
[3]
  CC50 at 4 days: > 100 µM
[4]
  EC50: 56 µM
[5]
  EC50: 64 µM
[6]
  EC50: 65 µM

## CC(C)(C)NC(=O)[C@@H]1C[C@@H]2CCCC[C@@H]2CN1C[C@@H](O)[C@H](Cc1ccccc1)NC(=O)[C@H](CC(N)=O)NC(=O)c1ccc2ccccc2n1 [SAQ, saquinavir, reference compound]
HIV-1 IIIB strain; MT4, read-out: EC50 HIV-1
  EC50: 0.01 ± 0.001 µM
[1]
  EC50: 0.5 ± 0.1 µM
HIV-1 N119 (Y181C)
  EC50: 0.02 ± 0.001 µM
[2]
  EC50: 0.01 ± 0.005 µM
[3]; MT-4, MTT method
  CC50: ≥ 20 µM
[4]
  EC50: 0.01 ± 0.002 µM
[5]
  EC50: 0.02 ± 0.007 µM
[6]
  EC50: 0.01 ± 0.005 µM
